Molecules are shown by their SMILES.

As a reminder, the IC50 is the concentration that inhibits the measured activity by half. Broadly, the AC50 is the midpoint of the concentration-response curve, whichever way the signal moves.

What all share (type): cell-based
Assay [1] relates to HTT CJ mRNA. Description: Gene panel canonical junction qPCR splicing assay, HTT. As to conditions: Table 4, read-out: HTT IC50 (decrease in CJ mRNA levels). In outline: (§1)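 A673 or K562 cells treated with compound; canonical-junction mRNA measured by RT-qPCR with junction-spanning primer/probe sets, normalized to GAPDH, GUSB or PPIA and DMSO (2^−ΔΔCt). IC50 for CJ decrease from 4-parameter logistic fit of percentage response.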
(In general: Real-time PCR tracks product formation cycle by cycle.)

Assay [2] relates to Target C CJ mRNA. Description: Gene panel canonical junction qPCR splicing assay, Target C. As to conditions: Table 4, read-out: Target C IC50 (decrease in CJ mRNA levels). Put shortly: as §1
The subject of assay [3] is SMN2 CJ mRNA. Description: Gene panel canonical junction qPCR splicing assay, SMN2. The settings on record: Table 4, read-out: SMN2 IC50 (decrease in CJ mRNA levels). In outline: as §1
Assay [4] has as its system HTT mRNA. Description: Splicing assay (RT-qPCR) of HTT mRNA alternative junction (AJ) and canonical junction (CJ). As to conditions: A673 or K562 cells, 24 hours; for IC50: decrease in CJ mRNA, read-out: HTT CJ IC50; for AC50: increase in AJ mRNA, read-out: HTT AJ AC50. In outline:
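A673 (adherent, 24 h pre-plating) or K562 cells treated 24 h at 37 °C with an 11-point 3-fold dilution series, top 10 uM, DMSO ≤0.25%. Lysates analysed by one-step RT-qPCR for HTT canonical (CJ) and alternative-exon (AJ) junctions, normalised to PPIA (A673) or GAPDH/GUSB (K562).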

For the compound `Cc1nc2cc(O)c(-c3ccc4nc(N5CC[C@H](NC(C)(C)C)C5)ccc4n3)cc2o1` [Compound 209], the IC50 in assay [1], in assay [2], in assay [3] and in assay [4] was less than 100 nM in each case. The half-maximal activity concentration (AC50) in assay [4] is less than 100 nM.

For `Cc1nc2cc(O)c(-c3ccc4nc(N5CC[C@@H](NC(C)(C)C)C5)ccc4n3)cc2o1` [Compound 210], the IC50 was less than 100 nM in assay [1], 1000 to 10000 nM in assay [2], less than 100 nM in assay [3] and less than 100 nM in assay [4]. Besides, the AC50 in assay [4] is less than 100 nM.

As for `Cn1cc2cc(-c3cc4ccc(N5CCC(NC(C)(C)C)C5)nc4cn3)c(O)cc2n1` (stereo not drawn) [Compound 218, 5-{2-[3-(tert-butylamino)pyrrolidin-1-yl]-1,7-naphthyridin-6-yl}-2-methylindazol-6-ol], the IC50 in assay [1] is greater than 10000 nM; in assay [2] it was greater than 10000 nM; in assay [3], 100 to 1000 nM; in assay [4], greater than 10000 nM. Further, the AC50 in assay [4] is greater than 10000 nM.

As for `Cc1nc2cc(O)c(-c3ccc4nc(N5CCC(N)C5)ccc4n3)cc2o1` (stereo not drawn) [Compound 234, 6-[6-(3-aminopyrrolidin-1-yl)-1,5-naphthyridin-2-yl]-2-methyl-1,3-benzoxazol-5-ol], the IC50 is 100 to 1000 nM in assay [1], 100 to 1000 nM in assay [2], less than 100 nM in assay [3] and 100 to 1000 nM in assay [4]. Also, the AC50 in assay [4] was less than 100 nM.

With `Cc1nc2c(C)c(O)c(-c3ccc4nc(N5CCC(NC6CCC6)C5)ccc4n3)cc2o1` (stereo not drawn) [Compound 235, 6-{6-[3-(cyclobutylamino)pyrrolidin-1-yl]-1,5-naphthyridin-2-yl}-2,4-dimethyl-1,3-benzoxazol-5-ol], the IC50 in assay [1], in assay [2], in assay [3] and in assay [4] was less than 100 nM in each case. For the same compound, the AC50 in assay [4] is less than 100 nM.

For `Cn1cc2cc(-c3ccc4nc(N5CCC(N)C5)ccc4n3)c(O)c(F)c2n1` (stereo not drawn) [Compound 238, 5-[6-(3-aminopyrrolidin-1-yl)-1,5-naphthyridin-2-yl]-7-fluoro-2-methylindazol-6-ol], the IC50 in assay [1], in assay [2], in assay [3] and in assay [4] was less than 100 nM each time. Also, the AC50 in assay [4] is less than 100 nM.

`Cn1cc2cc(-c3ccc4cc(C5CCNCC5)ccc4n3)c(O)c(F)c2n1` [Compound 241, 7-fluoro-2-methyl-5-[6-(piperidin-4-yl)quinolin-2-yl]indazol-6-ol]: the IC50 in assay [1], in assay [2], in assay [3] and in assay [4] was less than 100 nM in each case. The AC50 in assay [4] is less than 100 nM.

Take `Cn1cc2cc(-c3ccc4nc(N5CC[C@@H](N[C@H]6C[C@H](F)C6)C5)ccc4n3)c(O)cc2n1` [Compound 246]: the IC50 in assay [1], in assay [2], in assay [3] and in assay [4] was less than 100 nM each time. For the same compound, in assay [4], the AC50 was less than 100 nM.

With `Cn1cc2cc(-c3ccc4nc(N5CC[C@H](N[C@H]6C[C@H](F)C6)C5)ccc4n3)c(O)cc2n1` [Compound 247], the IC50 was less than 100 nM in assay [1], 100 to 1000 nM in assay [2], less than 100 nM in assay [3] and less than 100 nM in assay [4]. Moreover, the AC50 in assay [4] lay in the range of 100 to 1000 nM.

The values are drawn from patent US20240002375A1, “2-(INDAZOL-5-YL)-6-(PIPERIDIN-4-YL)-1,7-NAPHTHYRIDINE DERIVATIVES AND RELATED COMPOUNDS AS MODULATORS FOR SPLICING NUCLEIC ACIDS AND FOR THE TRE” (REMIX THERAPEUTICS INC., priority 2020, published 2024).
